Values joined by “and” are separate entries in the source; they are usually repeats but may differ in a detail not shown here. Identical values can stand only once. “Also recorded” adds a separate entry of the source.
Experiments:
Type in all cases: in vivo, albino C57BL/6 mice
Py8119 mammary tumor [1] = assay: T1-weighted MR tumor enhancement at 3T in mice with mammary fat pad tumors
Description: The University of California San Diego Institutional Animal Care and Use Committee (IACUC) approved this research under protocol S04011. All steps were ensured to minimize pain and suffering of all animals during the course of this experiment. Anesthesia during tumor inoculation and MR imaging was isoflurane/O2. All animals were given free access to food and water ad libitum during the entire study. Euthanasia involved CO2 asphyxiation followed by cervical dislocation. Each of the 4 inguinal nipples of 16 albino C57BL/6 (Harlan Labs) mice were randomized such that each mouse had 2 mammary fat pads inoculated with 10^4 Py8119 mammary tumor cells and the other 2 with an equal volume of saline. […]
All mice were imaged on days 4, 9, and 14 after inoculation under isoflurane/O2 anesthesia. […] Optimal ACPPD-Gd dose and imaging time were previously determined. […]
Tumor signal and size were quantified at each time point using region-of-interest (ROI) analysis with OsiriX software (Pixmeo, Geneva). […] Tumors <1mm^3 were not analyzed because of unreliable ROI placement and partial volume effects. A polygonal ROI was traced around the tumor on the fat-saturated T1-weighted axial sequence at its maximal dimension and the average signal and cross-sectional area recorded. […] Tumor volume was calculated using an ellipsoid function as 4/3*(area of tumor ROI)*(1/2)*(maximal orthogonal coronal diameter). […]

Py8119 mammary tumor [2] = assay: Blinded reader tumor detection on 3T MRI (ROC/AUC, inter-observer kappa); settings: for AUC (95%CI) of ROC curve for tumor presence, Reader 1 (experienced), all tumors (n = 107) / AUC (95%CI) of ROC curve for tumor presence, Reader 2 (trainee), all tumors (n = 107): 288 breasts, ACPPD-Gd 24 h post, gadobutrol 2–3 min post; for AUC (95%CI) of ROC curve for tumor presence, Reader 1 (experienced), tumors <5mm^3 (n = 58) / AUC (95%CI) of ROC curve for tumor presence, Reader 2 (trainee), tumors <5mm^3 (n = 58): obvious tumors (>5mm^3) removed
Description: The acquired 72 studies (3 groups x 8 mice x 3 time points) with 4 pulsing sequences each were anonymized and presented at random to 2 observers blinded to contrast grouping, time since inoculation, and which 2 nipples were inoculated with tumor. Reader 1 is an MR expert with extensive experience in clinical and animal MR image interpretation (RFM) and Reader 2 is a 2nd-year radiology resident in training (ESO). Studies were reviewed independently and readers reported whether the breast tissue under each of the 4 nipples in each study was normal or contained tumor along with their confidence level as low, medium, or high. If a tumor was present they described the degree and pattern of tumor enhancement.
Receiver operating characteristic (ROC) curves were constructed using 4 levels: normal, low, medium and high probability for tumor presence. There were 288 breasts evaluated (3 groups x 8 animals x 3 time-points x 4 breasts). […] Additional ROC curves were constructed for tumors <5mm^3 to assess the potential benefit of ACPPD-Gd in detecting small tumors. Interobserver agreement was assessed for all 288 breasts and within each of the 3 contrast groups using the kappa statistic. Area under the ROC curve (AUC) was calculated for the 3 contrast groups using the JROC web-based program.

[3] = Post mortem tissue Gd content by ICP-MS; settings: ACPPD-Gd 24 h post, gadobutrol at equilibrium phase
Description: Mice were sacrificed immediately after the 14-day MRI study and tumors, liver, kidneys, and muscle were harvested and immediately frozen at -20°C for later analysis. Tissue Gd content was measured using inductively coupled plasma-mass spectrometry (ICP-MS) on defrosted and weighted tissues. Less than 100mg samples of each tissue were placed in 900uL of nitric acid on a Gyromixer overnight at room temperature. The next day, 200μL of 30% hydrogen peroxide were added, and after 2 hours the samples were heated to 90–100°C for 2 hours. Tuning solution was then added to a 5mL total volume. Samples were then run in an Agilent Technologies 7700 Series ICP-MS to measure gadolinium content in parts-per-billion. Tissue Gd concentration in micromolar was calculated as (ppb of Gd/Gd molecular weight)*(total weight of solution measured/tissue wet weight).

Compound: O=C([O-])CN1CCN(CC(=O)[O-])CCN([C@H](CO)[C@H](O)CO)CCN(CC(=O)[O-])CC1.[Gd+3] (racemic) [gadobutrol, Gd-DO3A-butrol]
- Pattern of tumor enhancement (Py8119 mammary tumor [1]; 3T axial fat-saturated T1w images): more apparent at the tumor periphery; also recorded: enhanced predominantly the tumor rim
- T1w tumor enhancement, small tumors (1-5mm^3) (Py8119 mammary tumor [1]; 3T, ACPPD-Gd 24 h after 0.036 mmol Gd/kg, gadobutrol 2–3 min after 0.1 mmol/kg, mean±SD, p = 0.03): 19±18%
- AUC (95%CI) of ROC curve for tumor presence, Reader 1 (experienced), all tumors (n = 107) (Py8119 mammary tumor [2]): 0.91 and 0.92
- AUC (95%CI) of ROC curve for tumor presence, Reader 2 (trainee), all tumors (n = 107) (Py8119 mammary tumor [2]): 0.81
- AUC (95%CI) of ROC curve for tumor presence, Reader 1 (experienced), all tumors (n = 107) (Py8119 mammary tumor [2]; listed as Gadobutrol): 0.92 (0.86, 0.98)
- AUC (95%CI) of ROC curve for tumor presence, Reader 2 (trainee), all tumors (n = 107) (Py8119 mammary tumor [2]; listed as Gadobutrol): 0.81 (0.73, 0.90)
- AUC (95%CI) of ROC curve for tumor presence, Reader 1 (experienced), tumors <5mm^3 (n = 58) (Py8119 mammary tumor [2]): 0.86
- AUC (95%CI) of ROC curve for tumor presence, Reader 2 (trainee), tumors <5mm^3 (n = 58) (Py8119 mammary tumor [2]): 0.69
- AUC (95%CI) of ROC curve for tumor presence, Reader 1 (experienced), tumors <5mm^3 (n = 58) (Py8119 mammary tumor [2]; listed as Gadobutrol): 0.86 (0.75, 0.96)
- AUC (95%CI) of ROC curve for tumor presence, Reader 2 (trainee), tumors <5mm^3 (n = 58) (Py8119 mammary tumor [2]; listed as Gadobutrol): 0.69 (0.57, 0.81)
- Gd biodistribution: organ of dominant accumulation ([3]; ICP-MS of tumors, liver, kidneys, muscle): the majority of Gd was in the kidneys
- Tumor to muscle Gd concentration ratio ([3]; ICP-MS, 14 days after inoculation, mean±SD): 2.7 ± 1.0
